In patent US12122804B2, “γ-aminobutyric acid modulator crystal form X, preparation method and application thereof” (SHENZHEN RENTAI […]., priority 2019, dated 2024):

What was measured:
[1] = assessment of data of WO2018039378A1: crystal transformation, XRPD at different temperatures; cited from earlier work
[2] = Light stability of the crystal form (XRPD comparison); type: physicochemical; details: 25° C., 4500 Lux, 5 days and 10 days, FIG. 13
Procedure: (§1) The crystal form X prepared in Example 5 is tested as follows.
(1) Light stability: the test sample is placed in an environment having a temperature of 25° C. and a light condition of 4500 Lux for 5 days and 10 days, respectively, to test the stability of the crystal form.

[3] = High-temperature stability of the crystal form (XRPD comparison); type: physicochemical; details: 60° C., 5 days and 10 days, FIG. 14
Procedure: as §1
(2) High-temperature stability: the test sample is placed at a temperature of 60° C. for 5 days and 10 days, respectively, to test the stability of the crystal form.

[4] = Accelerated stability of the crystal form (XRPD comparison); type: physicochemical; details: 75% RH, 40° C., 5 days and 10 days, FIG. 15
Procedure: as §1
(3) Accelerated stability: the test sample is placed in an environment having a humidity of 75% RH and a temperature of 40° C. for 5 days and 10 days, respectively, to test the stability of the crystal form.

[5] = Comparison of crystal form X with crystal form K (XRPD, FIG. 17; stability); type: physicochemical
[6] = High-humidity stability of the crystal form (XRPD comparison); type: physicochemical; details: 92.5% RH, 25° C., 5 days and 10 days, FIG. 16
Procedure: as §1
(4) High-humidity stability: the test sample is placed in an environment having a humidity of 92.5% RH and a temperature of 25° C. for 5 days and 10 days, respectively, to test the stability of the crystal form.

## C[C@@]1(O)CC[C@H]2[C@H](CC[C@@H]3[C@@H]2CC[C@]2(C)[C@@H](C(=O)Cn4cc(C#N)cn4)CC[C@@H]32)C1 [crystal form A, 3α-hydroxy-3β-methyl-21-(4-cyano-1H-pyrazol-1′-yl)-19-nor-5β-pregnan-20-one]
[1]
  Crystal form stability (suitability as medicinal crystal form): unstable

## C[C@@]1(O)CC[C@H]2[C@H](CC[C@@H]3[C@@H]2CC[C@]2(C)[C@@H](C(=O)Cn4cc(C#N)cn4)CC[C@@H]32)C1 [crystal form X, 3α-hydroxy-3β-methyl-21-(4-cyano-1H-pyrazol-1′-yl)-19-nor-5β-pregnan-20-one]
[2]
  Light stability of the crystal form: good light stability
[3]
  High-temperature stability of the crystal form: good high-temperature stability
[4]
  Accelerated stability of the crystal form: good accelerated stability
[5]
  Stability relative to crystal form K: better stability than the crystal form K
[6]
  High-humidity stability of the crystal form: good high-humidity stability
